In patent publication US20130287807A1, “COMPOUNDS FOR TREATING SYMPTOMS ASSOCIATED WITH PARKINSON'S DISEASE” (priority 2008, published 2013):
Entries after “also recorded” stand apart in the source; their conditions may differ.

How the values were obtained:
[1] = test system: full length Aβ and/or fragments thereof; test: Immune response elicited by using AD mimotopes: detection of Aβ; assay type: in vivo; parameters: key: +: All peptides listed in table 1 mount specific immune reactions against full length Aβ and/or fragments thereof
From the text: In the following Table further examples of the immune response elicited by using AD mimotopes are described. All peptides listed in table 1 mount specific immune reactions against full length Aβ and/or fragments thereof.

[2] = test system: monoclonal antibody (DAEFRH-peptide-specific); test: Inhibition assay (ELISA): mimotope peptides compete with plate-bound original epitope DAEFRH for recognition by the monoclonal antibody; assay type: binding, Mice; settings: for Inhibitory capacity of mimotopes: summary Tables 1 and 2 (Examples 2, 3); for inhibition of binding of the monoclonal antibody to the original epitope: text to FIGS. 2-9
From the text: Mice are vaccinated with the 6mer peptide DAEFRH (natural N-terminal Aβ42 sequence) linked to the protein bovine serum albumin BSA (to make use of the hapten-carrier-effect), emulsified in CFA (first injection) and IFA (booster injections). DAEFRH-peptide-specific, antibody-producing hybridomas are detected by ELISA (DAEFRH-peptide-coated ELISA plates).
FIGS. 2 and 3 describe the results of inhibition assays performed with mimotope peptides included in and obtained from the 5 libraries (as described in WO 2004/062556). The mimotope peptides compete with the original epitope for recognition by the monoclonal antibody. Original epitope and mimotope peptides contain an additional C at the C-terminus for coupling to a protein carrier (if desired).
(§1) After blocking with PBS/BSA 1% (200 μl/well, 12 h, 4° C.), the plates are washed 3× times with PBS/Tween. Then, biotinylated monoclonal antibody (1:2000, 50 μl/well) and peptides (50 μl/well) at 50, 5, 0.5, 0.05, 0.005, and 0.0005 μg/ml are added for 20 min. at 37° C. The plates are washed 3× times with PBS/Tween and are incubated with horseradish peroxidase (HRP)-labeled streptavidin (100 μl/well, 30 min, RT). The plates are washed 5× times with PBS/Tween and are incubated with ABTS+H2O2(0.1% w/v, 10 to 45 min) and the reaction is stopped with citric acid followed by photometric evaluation (wavelength 405 nm).
as §1, with “different concentrations” for “50, 5, 0.5, 0.05, 0.005, and 0.0005 μg/ml”, “ABTS+H2O2 (0.1%” for “ABTS+H2O2(0.1%”
as §1, with “different concentrations” for “50, 5, 0.5, 0.05, 0.005, and 0.0005 μg/ml”

irrelevant peptide p1454 = test: Mimotope vaccination, serum titer ELISA against irrelevant peptide; assay type: in vivo, C57/B16 mice; settings: 30 μg peptide-KLH s.c. with alum
Procedure: (§2) Inhibiting as well as non-inhibiting peptides were coupled to KLH and injected into mice (wildtype C57/B16 mice; subcutaneous injection into the flank) together with an appropriate adjuvant (aluminium hydroxide). Animals were vaccinated 3-6 times in biweekly intervals and sera were taken biweekly as well. Titers to injected peptides, as well as to an irrelevant peptide were determined with every serum. Furthermore, titers against the recombinant human Aβ protein, and against original peptides were determined respectively. In general sera were analysed by reaction against peptides coupled to Bovine Serum Albumin (BSA) and recombinant full length proteins which were immobilised on ELISA plates. Titers were determined using anti mouse IgG specific antibodies. For detailed results see FIGS. 15, 16 and 17 respectively and FIGS. 23, 24 and 25 respectively.
(§3) Female C57/b16 mice, 5-6 mice per group, were subcutaneously immunized with 30 μg peptide coupled to KLH. Control groups were administered original epitope-KLH conjugates respectively. As adjuvant alum was used (always 1 mg per mouse). […] The in vitro ELISA assay to determine the antibody titer was performed with sera of single mice after each vaccination in a two week interval (see FIGS. 15 and 16 respectively). The wells of the ELISA plate were coated with mimotope-BSA conjugate and an irrelevant peptide-BSA conjugate (negative control). The positive control was performed by reaction of the parental antibody with the respective mimotope-BSA conjugate. The detection was performed with anti-mouse IgG. Additionally, recombinant proteins were immobilised on ELISA plates and sera reacted accordingly. FIGS. 15 to 17 show representative examples for assays used to characterise mimotopes in vivo.
as §3, with “FIGS. 25” for “FIGS. 15”, “and 26” for “and 16”, “respectively). Titers were calculated as OD max/2 in all figures shown.” for “respectively).”, “FIGS. 23, 24 and 25” for “FIGS. 15 to 17”

[3] = test system: Aβ/truncated/modified forms; test: In vivo characterisation of mimotopes: detection of Aβ/truncated/modified forms; parameters: species or system C57/B16 mice; key: +: All peptides listed in table 4 mount specific immune reactions against full length and/or truncated and modified forms of Aβ or fragments thereof; settings: Table 4, MV-002 derived mimotopes
Procedure: as §2, §3
as §3, with “FIGS. 25” for “FIGS. 15”, “and 26” for “and 16”, “respectively). Titers were calculated as OD max/2 in all figures shown.” for “respectively).”, “FIGS. 23, 24 and 25” for “FIGS. 15 to 17”

[4] = test system: monoclonal antibody MV-002; test: In vitro binding assay (ELISA), BSA-coupled peptides, parental antibody MV-002; parameters: species or system C57/B16 mice; settings: Table 1 (MV-002); peptide-BSA on plate, compared to original epitope
In short: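 BSA-conjugated phage-display peptides and variants coated on ELISA plates at 1 μM, then incubated with the monoclonal antibody used for the screen. Binding capacity given as 1:X, the dilution factor of the parental antibody; Ac- marks acetylated amino acids.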

[5] = test system: monoclonal antibody MV-002; test: In vitro inhibition assay (ELISA), MV-002 binding to original epitope; parameters: species or system C57/B16 mice; settings: for inhibition of binding of monoclonal antibody in in vitro competition experiments: MV-002 mimotopes; for Inhibition Capacity: Table 2 (MV-002), OD at 5 ug peptide compared to original peptide
[6] = test system: injected peptide (mimotope-BSA conjugate); test: Mimotope vaccination, serum titer ELISA against injected peptide; assay type: in vivo, C57/B16 mice; settings: 30 μg peptide-KLH s.c. with alum, anti-mouse IgG
Procedure: as §2, §3
as §3, with “FIGS. 25” for “FIGS. 15”, “and 26” for “and 16”, “respectively). Titers were calculated as OD max/2 in all figures shown.” for “respectively).”, “FIGS. 23, 24 and 25” for “FIGS. 15 to 17”

p4377 = test: Mimotope vaccination, serum ELISA against p4377; assay type: in vivo, C57/B16 mice; settings: peptide-KLH vaccines with alum; FIG. 24
Procedure: as §2
as §3, with “FIGS. 25” for “FIGS. 15”, “and 26” for “and 16”, “respectively). Titers were calculated as OD max/2 in all figures shown.” for “respectively).”, “FIGS. 23, 24 and 25” for “FIGS. 15 to 17”

[7] = competition ELISA, plate-bound DAEFRH-C-BSA

| Compound | inhibition of binding of the monoclonal antibody to the original epitope [2, 7] | IC50 (inhibition of monoclonal antibody recognition of DAEFRH) ([2]; competition ELISA, plate-bound DAEFRH-C-BSA, biotinylated mAb 1:2000) | Binding Capacity [4] | inhibition of binding of monoclonal antibody in in vitro competition experiments [5] | Detection of Aβ [1] | Inhibitory capacity of mimotopes [2] | immune response against unrelated sequence (p1454) (irrelevant peptide p1454) | Detection of Aβ/truncated/modified forms [3] | Inhibition Capacity [5] | immune response against injected peptide [6] | immune response against original epitope p4377 (p4377) |
| --- | --- | --- | --- | --- | --- | --- | --- | --- | --- | --- | --- |
| CC(C)C[C@H](NC(=O)[C@@H](N)CCC(=O)O)C(=O)N[C@@H](CCC(=O)O)C(=O)N[C@@H](Cc1ccccc1)C(=O)N[C@@H](CCCNC(=N)N)C(=O)NCC(=O)N[C@@H](CS)C(=O)O [Peptide 3008, ELEFRG] | – | – | – | – | + | weak | – | – | – | – | – |
| N=C(N)NCCC[C@H](NC(=O)[C@H](Cc1ccccc1)NC(=O)[C@H](CCC(=O)O)NC(=O)[C@H](Cc1ccc(O)cc1)NC(=O)[C@@H](N)CCC(=O)O)C(=O)NCC(=O)N[C@@H](CS)C(=O)O [Peptide 1239, EYEFRG] | block epitope recognition | more than 0.5 μg/ml | – | – | + | intermediate | – | – | – | – | – |
| GREFRN (GREFRNC) [Peptide 4003] | block epitope recognition; also recorded: only inhibitory at a relatively high concentration (10 μg/ml) | – | – | – | + | weak | – | – | – | – | – |
| C[C@H](NC(=O)[C@@H](N)Cc1ccc(O)cc1)C(=O)N[C@@H](CCC(=O)O)C(=O)N[C@@H](Cc1ccccc1)C(=O)N[C@@H](CCCNC(=N)N)C(=O)NCC(=O)N[C@@H](CS)C(=O)O [Peptide 3005, YAEFRG] | block epitope recognition | – | – | – | + | intermediate | – | – | – | – | – |

Second part, led by results:

| inhibition of binding of the monoclonal antibody to the original epitope [2, 7] | IC50 (inhibition of monoclonal antibody recognition of DAEFRH) ([2]; competition ELISA, plate-bound DAEFRH-C-BSA, biotinylated mAb 1:2000) | Binding Capacity [4] | inhibition of binding of monoclonal antibody in in vitro competition experiments [5] | Compound | Detection of Aβ [1] | Inhibitory capacity of mimotopes [2] | immune response against unrelated sequence (p1454) (irrelevant peptide p1454) | Detection of Aβ/truncated/modified forms [3] | Inhibition Capacity [5] | immune response against injected peptide [6] | immune response against original epitope p4377 (p4377) |
| --- | --- | --- | --- | --- | --- | --- | --- | --- | --- | --- | --- |
| block epitope recognition | – | – | – | C[C@H](NC(=O)[C@@H](N)CCC(=O)O)C(=O)N[C@@H](CCC(=O)O)C(=O)N[C@@H](Cc1ccccc1)C(=O)N[C@@H](CCCNC(=N)N)C(=O)NCC(=O)N[C@@H](CS)C(=O)O [Peptide 3006, EAEFRG] | + | strong | – | – | – | – | – |
| block epitope recognition | – | – | – | N=C(N)NCCC[C@H](NC(=O)[C@H](Cc1ccccc1)NC(=O)[C@H](CCC(=O)O)NC(=O)[C@H](Cc1ccc(O)cc1)NC(=O)[C@@H](N)CC(=O)O)C(=O)NCC(=O)N[C@@H](CS)C(=O)O [Peptide 3007, DYEFRG] | + | strong | – | – | – | – | – |
| – | – | 3 (strong binding :>320000) | active in in vitro inhibition assays | GEIWFEGC [p4680] | – | – | failed to induce a relevant unspecific immune response | + | 2 (strong inhibition (as original epitope; OD of peptide below 2, 3 times of original peptide)) | elicited immune responses | mounted detectable immune responses |
| – | – | 3 (strong binding :>320000) | active in in vitro inhibition assays | HQKMIFAC [p4675] | – | – | failed to induce a relevant unspecific immune response | + | 2 (strong inhibition (as original epitope; OD of peptide below 2, 3 times of original peptide)) | elicited immune responses | mounted detectable immune responses |
